Read-outs that look alike come from different tables or passages of the source.
How the values were obtained:
CDK2/CycE = molecular target: T1, CDK2/CycE (Homo sapiens, UniProt P24941); experiment: CDK2/CycE kinase assay (Method 2a); type: biochemical; conditions: 10 μM ATP
T1 construct: GST; purchased ProQinase GmbH (Freiburg, Germany); host or cells: insect cells (Sf9)
Source text: 2a. CDK2/CycE Kinase Assay:
CDK2/CycE-inhibitory activity of compounds of the present invention was quantified employing the CDK2/CycE TR-FRET assay as described in the following paragraphs:
Recombinant fusion proteins of GST and human CDK2 and of GST and human CycE, expressed in insect cells (Sf9) and purified by Glutathion-Sepharose affinity chromatography, were purchased from ProQinase GmbH (Freiburg, Germany) As substrate for the kinase reaction biotinylated peptide biotin-Ttds-YISPLKSPYKISEG (C-terminus in amid form) was used which can be purchased e.g. form the company JERINI Peptide Technologies (Berlin, Germany).
For the assay 50 nl of a 100 fold concentrated solution of the test compound in DMSO was pipetted into a black low volume 384 well microtiter plate (Greiner Bio-One, Frickenhausen, Germany), 2 μl of a solution of CDK2/CycE in aqueous assay buffer [50 mM Tris/HCl pH 8.0, 10 mM MgCl2, 1.0 mM dithiothreitol, 0.1 mM sodium ortho-vanadate, 0.01% (v/v) Nonidet-P40 (Sigma)] were added and the mixture was incubated for 15 min at 22° C. to allow pre-binding of the test compounds to the enzyme before the start of the kinase reaction. Then the kinase reaction was started by the addition of 3 μl of a solution of adenosine-tri-phosphate (ATP, 16.7 μM=>final conc. in the 5 μl assay volume is 10 μM) and substrate (1.25 μM=>final conc. in the 5 μl assay volume is 0.75 μM) in assay buffer and the resulting mixture was incubated for a reaction time of 25 min at 22° C. The concentration of CDK2/CycE was adjusted depending of the activity of the enzyme lot and was chosen appropriate to have the assay in the linear range, typical concentrations were in the range of 130 ng/ml. The reaction was stopped by the addition of 5 μl of a solution of TR-FRET detection reagents (0.2 μM streptavidine-XL665 [Cisbio Bioassays, Codolet, France] and 1 nM anti-RB(pSer807/pSer811)-antibody from BD Pharmingen [#558389] and 1.2 nM LANCE EU-W1024 labeled anti-mouse IgG antibody [Perkin-Elmer, product no. AD0077]) in an aqueous EDTA-solution (100 mM EDTA, 0.2% (w/v) bovine serum albumin in 100 mM HEPES/NaOH pH 7.0).
The resulting mixture was incubated 1 h at 22° C. to allow the formation of complex between the phosphorylated biotinylated peptide and the detection reagents. Subsequently the amount of phosphorylated substrate was evaluated by measurement of the resonance energy transfer from the Eu-chelate to the streptavidine-XL. Therefore, the fluorescence emissions at 620 nm and 665 nm after excitation at 350 nm was measured in a TR-FRET reader, e.g. a Rubystar (BMG Labtechnologies, Offenburg, Germany) or a Viewlux (Perkin-Elmer). The ratio of the emissions at 665 nm and at […] was taken as the measure for the amount of phosphorylated substrate. The data were normalised (enzyme reaction without inhibitor=0% inhibition, all other assay components but no enzyme=100% inhibition).

DU145 cells = experiment: Proliferation assay, DU145 (Method 3); type: cell-based, human; conditions: 4 days, crystal violet, read-out: Inhibition of DU145 cell proliferation IC50
Procedure: (§1) Cultivated tumour cells (HeLa, human cervical tumour cells, ATCC CCL-2; NCI-H460, human non-small cell lung carcinoma cells, ATCC HTB-177; A2780, human ovarian carcinoma cells, ECACC #93112519; DU 145, hormone-independent human prostate carcinoma cells, ATCC HTB-81; HeLa-MaTu-ADR, multidrug-resistant human cervical carcinoma cells, EPO-GmbH Berlin; Caco-2, human colorectal carcinoma cells, ATCC HTB-37; B16F10, mouse melanoma cells, ATCC CRL-6475) were plated at a density of 5,000 cells/well (DU145, HeLa-MaTu-ADR), 3,000 cells/well (NCI-H460, HeLa), 2,500 cells/well (A2780), 1,500 cells/well (Caco-2), or 1,000 cells/well (B16F10) in a 96-well multititer plate in 200 μL of their respective growth medium supplemented 10% fetal calf serum. After 24 hours, the cells of one plate (zero-point plate) were stained with crystal violet (see below), while the medium of the other plates was replaced by fresh culture medium (200 μl), to which the test substances were added in various concentrations (0 μM, as well as in the range of 0.001-10 μM; the final concentration of the solvent dimethyl sulfoxide was 0.5%). The cells were incubated for 4 days in the presence of test substances. Cell proliferation was determined by staining the cells with crystal violet: the cells were fixed by adding 20 μl/measuring point of an 11% glutaric aldehyde solution for 15 minutes at room temperature. After three washing cycles of the fixed cells with water, the plates were dried at room temperature. The cells were stained by adding 100 μl/measuring point of a 0.1% crystal violet solution (pH 3.0). After three washing cycles of the stained cells with water, the plates were dried at room temperature. The dye was dissolved by adding 100 μl/measuring point of a 10% acetic acid solution. The extinction was determined by photometry at a wavelength of 595 nm. The change of cell number, in percent, was calculated by normalization of the measured values to the extinction values of the zero-point plate (=0%) and the extinction of the untreated (0 μm) cells (=100%). The IC50 values (inhibitory concentration at 50% of maximal effect) were determined by means of a 4 parameter fit.

B16F10 cells = experiment: Proliferation assay, B16F10 (Method 3); type: cell-based, mouse; conditions: 4 days, crystal violet, read-out: Inhibition of B16F10 cell proliferation IC50
Procedure: as §1

| IC50 (CDK2/CycE) [nM] | IC50 (DU145 cells; Homo sapiens, DU-145, 96 h) [nM] | IC50 (B16F10 cells; Mus musculus, B16-F10, 96 h) [nM] | IC50 (DU145 cells) [nM] | IC50 (B16F10 cells) [nM] | SMILES |
| --- | --- | --- | --- | --- | --- |
| 600 | 309 | 488 |  |  | COc1cc(F)ccc1-c1cc(Nc2cc(CS(C)(=N)=O)ccn2)ncn1 (racemic) [Example 1, (rac)-6-(4-Fluoro-2-methoxyphenyl)-N-{4-[(S-methylsulfonimidoyl)methyl]pyridin-2-yl}pyrimidin-4-amine] |
| 160 | 77 | 215 |  |  | COc1cc(F)ccc1-c1cc(Nc2cc(CS(C)(=N)=O)cc(Cl)n2)ncn1 (racemic) [Example 4, (rac)-N-{6-Chloro-4-[(S-methylsulfonimidoyl)methyl]pyridin-2-yl}-6-(4-fluoro-2-methoxyphenyl)pyrimidin-4-amine] |
| 280 | 121 | 216 |  |  | COc1cc(F)ccc1-c1cc(Nc2cc(CS(C)(=N)=O)cc(C)n2)ncn1 (racemic) [Example 7, (rac)-6-(4-Fluoro-2-methoxyphenyl)-N-{6-methyl-4-[(S-methylsulfonimidoyl)methyl]pyridin-2-yl}pyrimidin-4-amine] |
| 63 | 88 | 100 |  |  | COc1cc(F)ccc1-c1cc(Nc2cc(CS(C)(=N)=O)cc(C(F)(F)F)n2)ncn1 (racemic) [Example 10, (rac)-6-(4-Fluoro-2-methoxyphenyl)-N-{4-[(S-methylsulfonimidoyl)methyl]-6-(trifluoromethyl)pyridin-2-yl}pyrimidin-4-amine] |
| 1300 |  |  |  |  | COc1cc(F)ccc1-c1cc(Nc2cc(CS(C)(=N)=O)ccn2)ncn1 (single isomer, unassigned) [Example 2, 6-(4-Fluoro-2-methoxyphenyl)-N-{4-[(S-methylsulfonimidoyl)methyl]pyridin-2-yl}pyrimidin-4-amine] |
| 660 |  |  |  |  | COc1cc(F)ccc1-c1cc(Nc2cc(CS(C)(=N)=O)ccn2)ncn1 (single isomer, unassigned) [Example 3, 6-(4-Fluoro-2-methoxyphenyl)-N-{4-[(S-methylsulfonimidoyl)methyl]pyridin-2-yl}pyrimidin-4-amine] |
| 56 | 105 | 122 |  |  | COc1cc(F)ccc1-c1cc(Nc2cc(CS(C)(=N)=O)cc(Cl)n2)ncn1 (single isomer, unassigned) [Example 5, N-{6-Chloro-4-[(S-methylsulfonimidoyl)methyl]pyridin-2-yl}-6-(4-fluoro-2-methoxyphenyl)pyrimidin-4-amine] |
| 94 |  |  | 110 | 123 | COc1cc(F)ccc1-c1cc(Nc2cc(CS(C)(=N)=O)cc(Cl)n2)ncn1 (single isomer, unassigned) [Example 6, N-{6-Chloro-4-[(S-methylsulfonimidoyl)methyl]pyridin-2-yl}-6-(4-fluoro-2-methoxyphenyl)pyrimidin-4-amine] |
| 400 | 179 | 284 |  |  | COc1cc(F)ccc1-c1cc(Nc2cc(CS(C)(=N)=O)cc(C)n2)ncn1 (single isomer, unassigned) [Example 8, 6-(4-Fluoro-2-methoxyphenyl)-N-{6-methyl-4-[(S-methylsulfonimidoyl)methyl]pyridin-2-yl}pyrimidin-4-amine] |
| 330 |  |  | 126 | 205 | COc1cc(F)ccc1-c1cc(Nc2cc(CS(C)(=N)=O)cc(C)n2)ncn1 (single isomer, unassigned) [Example 9, 6-(4-Fluoro-2-methoxyphenyl)-N-{6-methyl-4-[(S-methylsulfonimidoyl)methyl]pyridin-2-yl}pyrimidin-4-amine] |
